Measured values as given in patent US7803949B2, “Process for preparation of water-soluble azole prodrugs” (Eisai R&D Management Co., Ltd., priority 2005, dated 2010).
Where a name gives a salt, the structure may show the parent alone.

Assay: hygroscopicity by the micro balance method (Gravimetric Vapour Sorption System DVS-1)
Format: physicochemical
Details: FIG. 2 (A); temperature 25.1° C.
From the text: Next, it will be illustrated that although Compound (IV) prepared according to the present invention is a mono lysine salt, it has excellent […] in a comparison with a dilysine salt. Note that, a dilysine salt can be prepared by the methods disclosed in Published Japanese Translation of a PCT Application No. 2003-520235. […] Note that, the measurement instrument used in the micro balance method was the following apparatus:
Gravimetric Vapour Sorption System (Model DVS-1 Surface Measurement System).

C[C@@H](c1nc(-c2ccc(C#N)cc2)cs1)[C@@](Cn1cncn1)(OCOP(=O)(O)O)c1ccc(F)cc1F [mono lysine salt]
relative humidity at which moisture absorption phenomenon was observed: 70 % RH
